From patent publication US12466834B2, “Imidazodiazepinediones and methods of use thereof” (GFB (ABC), LLC, priority 2018, dated 2025)

How the values were obtained:
human TRPC5 [1] = target: T1, human TRPC5 (Homo sapiens, UniProt Q9UL62); test: FLIPR calcium assay, compound activation (agonism) of TRPC5 calcium response; assay type: cell-based; design: key to Agonist Potency Range (FLIPR): A=0.001-1 μM; B=1-10 μM; C=>1 μM; D=tested with a positive result for agonism, but EC50 not calculated; details: ICLN-1633 cells, Fluo-4 calcium response; for EC50: read-out: Agonist Potency Range (FLIPR)
T1 construct: expressed in transfected cells
T1 sequence (Q9UL62 1-973): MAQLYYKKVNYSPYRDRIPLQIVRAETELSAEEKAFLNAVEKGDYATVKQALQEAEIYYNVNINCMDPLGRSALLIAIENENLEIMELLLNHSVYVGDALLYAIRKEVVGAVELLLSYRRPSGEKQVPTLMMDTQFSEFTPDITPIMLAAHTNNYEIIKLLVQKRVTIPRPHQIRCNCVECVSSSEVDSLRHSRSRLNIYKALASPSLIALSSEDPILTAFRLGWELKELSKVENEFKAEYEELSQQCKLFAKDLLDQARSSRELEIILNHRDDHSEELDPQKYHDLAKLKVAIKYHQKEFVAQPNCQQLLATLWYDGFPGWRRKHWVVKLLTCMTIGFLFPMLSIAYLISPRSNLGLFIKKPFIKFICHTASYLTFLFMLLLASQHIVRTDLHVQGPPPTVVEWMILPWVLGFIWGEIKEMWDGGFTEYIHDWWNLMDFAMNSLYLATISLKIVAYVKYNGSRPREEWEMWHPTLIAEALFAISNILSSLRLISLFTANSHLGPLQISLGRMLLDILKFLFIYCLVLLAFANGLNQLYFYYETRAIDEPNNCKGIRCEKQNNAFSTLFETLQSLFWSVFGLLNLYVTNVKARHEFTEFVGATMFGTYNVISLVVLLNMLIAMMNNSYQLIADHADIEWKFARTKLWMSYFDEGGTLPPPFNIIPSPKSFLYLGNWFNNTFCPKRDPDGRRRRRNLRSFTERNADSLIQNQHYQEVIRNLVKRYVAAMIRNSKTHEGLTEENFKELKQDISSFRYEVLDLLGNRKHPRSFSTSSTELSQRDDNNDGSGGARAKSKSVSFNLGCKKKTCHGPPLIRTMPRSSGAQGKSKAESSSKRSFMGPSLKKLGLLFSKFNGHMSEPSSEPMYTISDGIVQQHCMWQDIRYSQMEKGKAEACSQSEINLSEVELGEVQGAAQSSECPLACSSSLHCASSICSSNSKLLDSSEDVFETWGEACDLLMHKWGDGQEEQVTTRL
Description: (§1) ICLN-1633 cells (HEK-TREx hTRPC5) expressing TRPC5 were generated as follows. Commercially available HekTrex-293 cells were seeded at 0.7×10^6 cells/well in a 1×6-well plate 24 hrs prior to transfection using 2 mL cell growth media containing no antibiotics (1× DMEM/high glucose (Hyclone #SH30022.02); 10% fetal bovine serum (Sigma) 2 mM sodium pyruvate, 10 mM HEPES). The human TRPC5 coding sequence (NM_012471 with a silent T478C mutation) was cloned into pcDNA5/TO (Invitrogen; Cat No. V103320) using hygromycin as the resistance gene and the plasmid (SEQ ID NO:1) propagated using T-Rex-293 cells (Invitrogen; Cat No. R71007) following manufacturer's directions. On day 2, 2 μg of plasmid DNA plus 6 μl of Xtreme-GENE HP reagent in Optimem (200 μl total volume) was prepared and incubated for 15 min at room temperature. This plasmid solution was then gently overlayed dropwise onto each well and the plate was gently swirled to mix complex with the media for approximately 30 seconds. Transfected cells were incubated at 37° C. in a 10% CO2 incubator for 24 hrs. The transfected cells were harvested and transferred into 2×150 mm dishes containing cell growth media with no antibiotics at 37° C.
(§2) Compounds were made up to, or supplied as a 10 mM stock solution generally using DMSO as the vehicle. 10-point dose response curves were generated using the Echo-550 acoustic dispenser. Compound source plates were made by serially diluting compound stocks to create 10 mM, 1 mM, and 0.1 mM solutions in DMSO into Echo certified LDV plates. The Echo then serially spotted 100% DMSO stock solutions into source dose response plates to generate a 4-fold dilution scheme. 100% DMSO was added to the spotted dose response plates to bring the final volume to 5 μl. 300 nl of the dose response stock plate was then spotted into pre-incubation and stimulation assay plates. 50 μl of pre-incubation buffer and 100 μl of stimulation buffer was then added to the plates resulting in a final assay test concentration range of 30 μM to 0.0001 μM with a final DMSO concentration of 0.3%.
(§3) Human ICLN-1633 cells expressing were plated onto 384 well, black poly-D-lysine-coated microplates and maintained in TRPC5 growth media the day prior to use for experiments. TRPC5 expression was induced by the application of 1 μg/mL tetracycline at the time of plating. Media was removed from the plates and 10 μl of 4 μM of Fluo-4 AM (mixed with equal volume of Pluronic F-127) in Earls's Balanced Salt Solution (EBSS) was added to the cells. Cells were incubated at room temperature, protected from light, for 60-90 minutes. After the incubation period, the dye was removed and replaced with 10 μl of EBSS. Cell, pre-incubation and stimulation plates were loaded onto the FLIPR-II and the assay was initiated. The FLIPR measured a 10 second baseline and then added 10 μl of 2× compounds (or controls). Changes in fluorescence were monitored for an additional 5 minutes. After the 5 minute pre-incubation, 20 μl of 2× riluzole (with 1× compound or controls) was added to the cell plate. The final riluzole stimulation concentration in the assay was 30 μM. After the riluzole addition, changes in fluorescence were monitored for an additional 5 minutes. Reduction in the riluzole-activated calcium response relative to control wells was reported as inhibition. A compound-mediated increase in the riluzole response relative to control riluzole response (no test agent present) with no enhancement of calcium entry during preincubation phase was reported as an agonist response.
Compound activation (agonism) of TRPC5 calcium response was determined as follows. After the initial compound addition, fluorescence was monitored for 5 minutes. The maximum relative fluorescence response (minus the control response of EBSS buffer alone) is captured and exported from the FLIPR. Compound activation is calculated using the following formula: […]

human TRPC5 [2] = target: T1, human TRPC5; test: FLIPR calcium assay, inhibition of riluzole-activated TRPC5 calcium response; assay type: cell-based; details: ICLN-1633 cells; riluzole 30 μM stimulation; Fluo-4 calcium response; read-out: Inhibitor Potency Range (FLIPR)
Description: as §1, §2, §3
Compound inhibition of TRPC5 calcium response was determined as follows. After the riluzole addition, fluorescence was monitored for a 5-minute period. For inhibition, the maximum relative fluorescence response (minus the control response of 1 μM of an internal control compound known to maximally block TRPC5 calcium response, the “REF INHIB” in the formula below) was captured and exported from the FLIPR. […]

Row | Agonist Potency Range (FLIPR) (human TRPC5 [1]) | IC50 (human TRPC5 [2]) | EC50 (human TRPC5 [1]) | SMILES
1 | D | > 10 µM | – | C[C@@H]1C(=O)N(C)c2nc(Oc3cccc(F)c3)n(Cc3ccc(Cl)cc3)c2C(=O)N1CCCO (single isomer, unassigned) [Compound 19]
2 | – | > 10 µM | 1 to 10 µM | O=C1c2c(nc(Oc3cccc(OC(F)(F)F)c3)n2Cc2ccc(Cl)cc2)N2CCC[C@H]2C(=O)N1CCCO (single isomer, unassigned) [Compound 22]
3 | – | 0.001 to 1 µM | > 10 µM | O=C1c2c(nc(Oc3cccc(OC(F)(F)F)c3)n2Cc2ccc(Cl)cc2)N2CCC[C@@H]2C(=O)N1CCCO (single isomer, unassigned) [Compound 23]
4 | – | 0.001 to 1 µM | > 10 µM | CN1CC(=O)N(CCCO)C(=O)c2c1nc(Oc1cccc(OC(F)(F)F)c1)n2Cc1ccc(Cl)cc1 [Compound 21, 1-[(4-chlorophenyl)methyl]-7-(3-hydroxypropyl)-4-methyl-2-[3-(trifluoromethoxy)phenoxy]-1H,4H,5H,6H,7H,8H-imidazo[4,5-e][1,4]diazepine-6,8-dione]
